Where two headings read alike, the source gives them in different places.
Key:
[1] = target: HIV-1 protease (Human immunodeficiency virus type 1 group M subtype B, UniProt P04585); test: biochemical
[2] = tested on: HIV-1 (strain IIIB); test: microbe, parasite or virus in culture; assay type: cell-based; conditions: Human immunodeficiency virus 1, 120 h; MT4 cells infected with HIV-1 strain IIIB, 5 days; lower line of each compound's entry; read-out: IC50 (MT-4 cells)
[3] = HIV-1 protease, upper line of each compound's entry, read-out: Ki (enzyme)

Compound | Ki [1, 3] | IC50 [2] | Ki [1]
Nc1cccc(S(=O)(=O)N(C[C@@H](O)[C@H](Cc2ccccc2)NC(=O)O[C@H]2CO[C@H]3OCC[C@H]32)OC2CCCCC2)c1 [Compound 154, (3R,3aS,6aR)hexahydrofuro[2,3-b]furan-3-yl(1S,2R)-3-[[(3-aminophenyl)sulfonyl](cyclohexyloxy)amino]-1-benzyl-2-hydroxypropylcarbamate] | < 1 nM | ≤ 100 nM | –
CCC(C)ON(C[C@@H](O)[C@H](Cc1ccccc1)NC(=O)OC1CO[C@H]2OCC[C@@H]12)S(=O)(=O)c1ccc(OC)cc1 (stereo partly drawn) [Compound 68, (3R,3aS,6aR)hexahydrofuro[2,3-b]furan-3-yl N-((1S,2R)-1-benzyl-3-sec-butoxy[(4-methoxyphenyl)sulfonyl]amino-2-hydroxypropyl)carbamate] | < 1 nM | ≤ 100 nM | –
O=C(N[C@@H](Cc1ccccc1)[C@H](O)CN(OC1CCCC1)S(=O)(=O)c1ccc2c(c1)OCO2)OC1CO[C@H]2OCC[C@@H]12 (stereo partly drawn) [Compound 138, (3R,3aS,6aR)hexahydrofuro[2,3-b]furan-3-yl N-(1S,2R)-3-[(1,3-benzodioxol-5-ylsulfonyl)(cyclopentyloxy)amino)-1-benzyl-2-hydroxypropylcarbamate] | – | ≤ 100 nM | < 1 nM
COc1ccc(S(=O)(=O)N(C[C@@H](O)[C@H](Cc2ccccc2)NC(=O)OC(C)(C)C)OC(C)C)cc1 [Compound 6] | – | > 1000 nM | 10 to 100 nM
CN(C)C(=O)Nc1nc2cc(S(=O)(=O)N(C[C@@H](O)[C@H](Cc3ccccc3)NC(=O)OC(C)(C)C)OC3CCCC3)ccc2[nH]1 [Compound 14, Tert-butyl N-(1S,2R)-1-benzyl-3-[(cyclopentyloxy)(2-[(dimethylamino-carbonyl)amino]-1H-benzimidazol-5-ylsulfonyl)amino]-2-hydroxypropylcarbamate] | < 1 nM | 100 to 500 nM | –
COC(=O)Nc1nc2cc(S(=O)(=O)N(C[C@@H](O)[C@H](Cc3ccccc3)NC(=O)OC3CO[C@H]4OCC[C@@H]34)OC3CCCC3)ccc2[nH]1 (mixture of isomers) [Compound 54, (3aS,6aR)Hexahydrofuro[2,3-b]furan-3-yl N-(1S,2R)-1-benzyl-3-[(cyclopentyloxy)(2-[(methoxycarbonyl)amino]-1H benzimidazol-5-ylsulfonyl)amino]-2-hydroxypropylcarbamate] | < 1 nM | ≤ 100 nM | –
CNC(=O)CNC(=O)NCCNc1cccc(S(=O)(=O)N(CC(O)C(Cc2ccccc2)NC(=O)OC2COC3OCCC23)OC2CCCC2)c1 [Example 167, (3R,3aS,6aR)hexahydrofuro[2,3-b]furan-3-yl N-[(1S,2R)-1-benzyl-3-((cyclopentyloxy)[3-([(2-[methylamino]-2-oxoethylamino)carbonylamino]ethylamino)phenyl]sulfonylamino)-2-hydroxypropyl]carbamate and (3S,3aR,6aS)hexahydrofuro[2,3-b]furan-3-yl N-[(1S,2R)-1-benzyl-3-((cyclopentyloxy)[3-([2-[methylamino)-2-oxoethylamino)carbonylamino]ethylamino)phenyl]sulfonylamino)-2-hydroxypropyl]carbamate] | < 1 nM | 100 to 500 nM | –
CCN(C)C(=O)CNc1cccc(S(=O)(=O)N(CC(O)C(Cc2ccccc2)NC(=O)OC2COC3OCCC23)OC2CCCC2)c1 (mixture of isomers) [Example 170, (3R,3aS,6aR)hexahydrofuro[2,3-b]furan-3-yl N-[(1S,2R)-1-benzyl-3-((cyclopentyloxy)[3-(2-[ethyl(methyl)amino]-2-oxoethylamino)phenyl]sulfonylamino)-2-hydroxypropyl)carbamate and (3S,3aR,6aS)hexahydrofuro[2,3-b]furan-3-yl N-[(1S,2R)-1-benzyl-3-((cyclopentyloxy)[3-(2-[ethyl(methyl)amino]-2-oxoethylamino)phenyl]sulfonylamino)-2-hydroxypropyl]carbamate] | < 1 nM | ≤ 100 nM | –
CCC(CC)ON(C[C@@H](O)[C@H](Cc1ccccc1)NC(=O)O[C@H]1CO[C@H]2OCC[C@H]21)S(=O)(=O)c1ccc2c(c1)OCO2 [Example 162, (3R,3aS,6aR)hexahydrofuro[2,3-b]furan-3-yl(1S,2R)-3-[(1,3-benzodioxol-5-ylsulfonyl)(1-ethylpropoxy)amino]-1-benzyl-2-hydroxypropylcarbamate] | < 1 nM | ≤ 100 nM | –
COc1ccc(S(=O)(=O)N(C[C@@H](O)[C@H](Cc2ccccc2)NC(=O)OC2CO[C@H]3OCC[C@@H]23)OC2CCOCC2)cc1 (stereo partly drawn) [Compound 73, (3R,3aS,6aR)hexahydrofuro[2,3-b]furan-3-yl N-(1S,2R)-1-benzyl-2-hydroxy-3-[[(4-methoxyphenyl)sulfonyl](tetrahydro-2H -pyran-4-yloxy)amino]propylcarbamate] | < 1 nM | ≤ 100 nM | –
O=C(O)CNc1cccc(S(=O)(=O)N(CC(O)C(Cc2ccccc2)NC(=O)OC2COC3OCCC23)OC2CCCC2)c1 [Compound 35, 2-2-(3-[[(2R,3S)-3-([(3R,3aS,6aR)hexahydrofuro[2,3-b]furan-3-yloxy]carbonylamino)-hydroxy-4-phenylbutyl](cyclopentyloxy)amino]sulfonylanilino)acetic acid and 2-2-(3-[[(2R,3S)-3-([(3S,3aR,6aS)hexahydrofuro[2,3-b]furan-3-yloxy]carbonylamino)-hydroxy-4-phenylbutyl](cyclopentyloxy)amino]sulfonylanilino)acetic acid] | < 1 nM | > 1000 nM | –
COc1ccc(S(=O)(=O)N(C[C@@H](O)[C@H](Cc2ccccc2)NC(=O)OC(C)(C)C)OCc2ccccc2)cc1 [Compound 21, tert-butyl N-((1S,2R)-1-benzyl-3-(benzyloxy)[(4-methoxyphenyl)sulfonyl]amino-2-hydroxypropyl)carbamate] | 10 to 100 nM | > 1000 nM | –
CNc1cccc(S(=O)(=O)N(C[C@@H](O)[C@H](Cc2ccccc2)NC(=O)O[C@H]2CO[C@H]3OCC[C@H]32)OC(C)C)c1 [Compound 127] | < 1 nM | ≤ 100 nM | –
COc1ccc(S(=O)(=O)N(C[C@@H](O)[C@H](Cc2ccccc2)NC(=O)[C@H](CC(N)=O)NC(=O)c2ccc3ccccc3n2)OC2CCCC2)cc1 [Compound 50] | < 1 nM | ≤ 100 nM | –
CCC(CC)ON(C[C@@H](O)[C@H](Cc1ccccc1)NC(=O)O[C@H]1CO[C@H]2OCC[C@H]21)S(=O)(=O)c1ccc(O)cc1 [Example 166, (3R,3aS,6aR)hexahydrofuro[2,3-b]furan-3-yl(1S,2R)-1-benzyl-3-{(1-ethylpropoxy)[(4-hydroxyphenyl)sulfonyl]amino}-2-hydroxypropylcarbamate] | < 1 nM | ≤ 100 nM | –
O=C(NC(Cc1ccccc1)C(O)CN(OC1CCCC1)S(=O)(=O)c1cccc(NCCO)c1)OC1COC2OCCC12 [Compound 36, (3R,3aS,6aR)hexahydrofuro[2,3-b]furan-3-yl N-(1S,2R)-1-benzyl-3-[(cyclopentyloxy)(3-[(2-hydroxyethyl)amino]phenylsulfonyl)amino]-2-hydroxypropylcarbamate and (3S,3aR,6aS)hexahydrofuro[2,3-b]furan-3-yl N-(1S,2R)-1-benzyl-3-[(cyclopentyloxy) (3-[(2-hydroxyethyl)amino]phenylsulfonyl)amino]-2-hydroxypropylcarbamate] | < 1 nM | ≤ 100 nM | –

Reference: patent US20040097594A1 (priority 1998, published 2004)
